In patent publication US20080182277A1, “Assays and methods using biomarkers” (Genentech, Inc., priority 2005, published 2008):

Experiments:
Format in all cases: cell-based, human
[1] = system: PSN-1 pancreatic carcinoma cells; assay: siRNA knockdown followed by cell viability assay, PSN-1; conditions: siRNA 25 nM 48 h, then Apo2L/TRAIL 24 h
Procedure: (§1) FIG. 11 illustrates modulation of particular O-glycosylation enzymes alters sensitivity to Apo2L/TRAIL. (A) Colo205 cells were preincubated with the pan O-glycosylation enzyme inhibitor benzyl-GalNAc (bGalNAc), treated with Apo2L/TRAIL for 24 h, and cell viability was determined (DMSO=vehicle control). (B) PSN-1 (pancreatic carcinoma) and Hs294T (melanoma) cells were transfected with caspase-8 or ppGalNAcT-14 siRNAs for 48 h, incubated with Apo2L/TRAIL for another 24 h and cell viability was determined. siRNA duplexes against a non-targeting sequence (Dharmacon) were used as a control (NTC). (C) DLD-1 colorectal carcinoma cells were transfected with ppGalNAcT-3 or Fut-6 by siRNAs and tested as in B. (D) HEK293 cells were co-transfected with plasmids encoding the indicated genes in combination with ppGalNAcT-14 or vector control. Apoptosis was measured at 24 h by Annexin V staining (left panel). H1569 melanoma cells were transduced with retrovirus directing ppGalNAcT-14 expression or control retrovirus; resulting cell line pools were treated with Apo2L/TRAIL for 24 h and cell viability was determined (right panel). Western blot analysis using anti-FLAG antibodies was used to verify expression of epitope-tagged ppGalNAcT-14.
(§2) FIG. 14 illustrates (A) Reduction in mRNA expression of ppGalNAcT-14 or ppGalNAcT-3 in PSN-1 or DLD-1 cells after 48 h siRNA knockdown by Taqman analysis. […]

Hs294T melanoma cells = assay: siRNA knockdown followed by cell viability assay, Hs294T; conditions: siRNA 25 nM 48 h, then Apo2L/TRAIL 24 h
Procedure: as §1, §2

PSN-1 cells = assay: Immunoblot analysis of the Apo2L/TRAIL-induced caspase cascade, PSN-1; conditions: siRNA 48 h, Apo2L/TRAIL 4 or 8 h
Procedure: (§3) FIG. 12 illustrates (A) Analysis of the caspase cascade induced by Apo2L/TRAIL. PSN-1 and DLD-1 cells were transfected with siRNAs against ppGalNAcT-14 or Fut-6, respectively, for 48 h. The cells were treated with Apo2L/TRAIL for 4 or 8 h, and cell lysates were analyzed by immunoblot with antibodies specific for caspase-8, Bid, caspase-9, caspase-3, or actin as a loading control. (B) PSN-1 cells were transfected with ppGalNAcT-14 siRNA as in A, treated with Apo2L/TRAIL for 4 h, and caspase-3/7 enzymatic activity in cell lysates was determined. (C) Analysis of the Apo2L/TRAIL DISC. PSN-1 cells were transfected with ppGalNAcT-14 siRNA as in A. FLAG-Apo2L/TRAIL ([…]) was added for 0-60 min, the cells were lysed, and subjected to an immunoprecipitation with an anti-FLAG antibody. DISC-associated FADD, caspase-8, DR4, and were detected by immunoblot. (D) PSN-1 cells were transfected, treated, and subjected to DISC immunoprecipitation as in C, and DISC-associated caspase-8 enzymatic activity was measured as previously described (Sharp et al., J. Biol. Chem., 280:19401 (2005).
(§4) siRNAs were purchased as double stranded RNA oligonucleotides and transfected into the respective cell lines at a final concentration of 25 nM for each siRNA. siRNA duplexes against a non-targeting sequence (Dharmacon) was used as a control. […]

DLD-1 cells = assay: Immunoblot analysis of the Apo2L/TRAIL-induced caspase cascade, DLD-1; conditions: siRNA 48 h, Apo2L/TRAIL 4 or 8 h
Procedure: as §3, §4

Colo205 cells = assay: Inhibition of O-glycosylation with benzyl-GalNAc, then Apo2L/TRAIL viability assay; conditions: preincubation with Benzyl-a-GalNAc 2 mM or 4 mM, then Apo2L/TRAIL 24 h
Procedure: as §1
Colo205 cells were grown in the presence of Benzyl-a-GalNAc (2 mM or 4 mM) for 72 hours. […]

## 5′ GGACAAAGTTTACCAAATG-dTdT 3′ [caspase-8 siRNA, reference compound]
[1]
  effect on sensitivity to Apo2L/TRAIL (cell viability): essentially complete protection
Hs294T melanoma cells
  effect on sensitivity to Apo2L/TRAIL (cell viability): essentially complete protection
PSN-1 cells
  Apo2L/TRAIL-induced caspase processing (caspase-8, Bid, caspase-9, caspase-3): prevented these events
DLD-1 cells
  Apo2L/TRAIL-induced caspase processing (caspase-8, Bid, caspase-9, caspase-3): prevented these events

## CC(=O)N[C@H]1[C@@H](OCc2ccccc2)O[C@H](CO)[C@H](O)[C@@H]1O [benzyl-GalNAc, Benzyl-a-GalNAc]
Colo205 cells
  effect on sensitivity to Apo2L/TRAIL (cell viability): markedly reduced sensitivity to Apo2L/TRAIL
